Measured values: patent publication US8338423B2, “Compositions for the treatment of hyperphenylalaninemia” (Universidad de Zaragoza, priority 2007, dated 2012)

Columns and labels:
wt-PAH [1] = molecular target: T1, wt-PAH (Homo sapiens, UniProt P00439); assay: ANS-monitored thermal unfolding of wt-PAH; format: binding; conditions: for ΔT0.5 PAHwt / T0.5 PAHwt (half denaturation temperature): 100 μM compound; for ΔT0.5 PAHwt: vs no ligand; for T0.5 PAHwt (half denaturation temperature): mean ± SD; for stabilizing effect on wt-PAH: 25 μM compound (FIG. 2)
T1 construct: made in house; host or cells: E. coli
T1 sequence (P00439 1-452): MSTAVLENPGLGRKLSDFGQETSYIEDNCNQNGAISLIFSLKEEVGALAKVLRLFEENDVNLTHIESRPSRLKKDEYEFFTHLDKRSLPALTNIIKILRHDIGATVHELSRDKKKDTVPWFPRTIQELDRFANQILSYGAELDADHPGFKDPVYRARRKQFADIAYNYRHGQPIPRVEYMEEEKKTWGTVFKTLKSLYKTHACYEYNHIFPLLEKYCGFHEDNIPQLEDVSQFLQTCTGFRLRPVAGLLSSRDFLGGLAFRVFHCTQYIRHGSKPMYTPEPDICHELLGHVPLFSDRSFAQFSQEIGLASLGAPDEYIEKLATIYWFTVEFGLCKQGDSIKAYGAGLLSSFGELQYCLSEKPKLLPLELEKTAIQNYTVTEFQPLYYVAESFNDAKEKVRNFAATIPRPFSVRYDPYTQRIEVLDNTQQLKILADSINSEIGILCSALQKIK
Experimental: HTS for ligand-induced PAH stabilization was performed by monitoring the thermal denaturation of recombinant pure PAH protein in the presence of the extrinsic fluorescent probe 8-anilino 1-naphtalene sulfonic acid (ANS; Aldrich). HTS experiments were performed in a FluoDia T70 High Temperature Fluorescence Microplate Reader (Photon Technology International). Protein-ligand solutions (200 uL) were dispensed into 96-well microplates (ThermoFast®96 Skirted from Abgene) and overlayed with mineral oil. Protein solutions contained 0.1 mg/ml PAH (2 μM in PAH subunit) in 20 mM Hepes 200 mM NaCl pH 7.0 and 100 μM ANS. Ligands were added in DMSO, at 100 μM and 2.5% final concentration, respectively. Control experiments in the absence of DMSO and/or ligands were routinely performed in each microplate. Ligands (from MayBridge HitFinder™ Collection Database) were manually added to the microplates containing the protein solutions and incubated at 25° C. for 30 min before loading them onto the microplate reader. Thermal denaturation was monitored by following the increase in ANS fluorescence intensity due to protein unfolding λexc=395 and λern=500 nm; filters (Matulis D, et. Al., Biochemistry 2005, 44(13):5258-66). Fluorescence was registered in the 25-75° C. range, at a 1° C./min scan rate and allowing the system to equilibrate at each temperature for 1 min before fluorescence acquisition The experiments were real-time monitored using the software provided by the manufacturer. After smoothing and normalization of the experimental data, ligand induced stabilization was screened by estimation of the T0.5 as midpoint temperature of the transition defined as the temperature where half of the unfolded fluorescence signal (fu) is experimentally observed, using a home-built software written in C++ and the following expression (equation 1): […]
Additional thermal denaturation experiments were performed on a Cary Eclipse fluorescence spectrophotometer equipped with a temperature controlled Peltier multicell holder (Varian). Samples containing PAH (2 μM subunit) in 20 mM NaHepes, 200 mM NaCl, pH 7.0, 100 μM ANS, 2.5% DMSO and 0-100 μM ligands were incubated at room temperature for 30 min to allow equilibration prior to measurements. Thermal denaturation was monitored by following changes in ANS fluorescence emission (excitation at 395 and emission at 500 nm; slits 10 nm) at a 1 K/min in a 20-80° C. range. Each run contained 4 different samples, including a control in the absence of ligand. Data analysis was performed by fitting of the experimental fluorescence to equation 1.

wt-PAH [2] = molecular target: T1, wt-PAH; assay: Enzyme kinetic analysis of recombinant PAH activity; format: biochemical; conditions: for reduction in Vmax (activity dependence on L-Phe) / inhibition of PAH activity / increase of Km for BH4 / S0.5, L-Phe / Vmax, L-Phe / h (Hill coefficient), L-Phe / Vmax, BH4, No preincubation / Vmax, BH4, Preincubation: 100 μM compound; for reduction in Vmax (activity dependence on L-Phe): 75 μM BH4; for inhibition of PAH activity: 100 μM L-Phe, 10 μM BH4, L-Phe preincubation (FIG. 3A); for increase of Km for BH4: preincubation with 1 mM L-Phe; for S0.5, L-Phe / Vmax, L-Phe / h (Hill coefficient), L-Phe: 75 μM BH4, L-Phe 0-1 mM, preincubated; for S0.5, L-Phe / Vmax, L-Phe / h (Hill coefficient), L-Phe / Vmax, BH4, No preincubation / Vmax, BH4, Preincubation: mean ± S.E.; for Vmax, BH4, No preincubation / Vmax, BH4, Preincubation: 1 mM L-Phe, BH4 0-200 μM; for Vmax, BH4, No preincubation: not preincubated; for Vmax, BH4, Preincubation: preincubated with L-Phe; for Ki: using standard equations for competitive inhibition, read-out: Kl vs BH4 (competitive inhibition)
Experimental: PAH activity was measured at 25° C. for 1 min essentially as described (BjØrgo E, et al., Eur. J. Biochem. 1988; 257(1):1-10). Tetrameric hPAH (1-2 μg) was incubated in 20 mM Hepes 0.2 M NaCl pH 7.0, containing catalase (0.04 mg/ml), 0.1-1 mM L-Phe, DMSO 2.5% and 0-100 μM of each compound. After 4 min incubation at 25° C., ferrous ammonium sulphate (100 μM) was added, and the reaction was triggered after 1 min by adding BH4 (10-200 μM) in the presence of 5 mM DTT. In some experiments, the preincubation step with L-Phe was omitted and L-Phe was added together with BH4 to analyze the L-Phe induced activation of the enzyme. To determine the kinetic parameters for BH4 and L-Phe, BH4 was used at 0-200 μM (at fixed 1 mM L-Phe) and L-Phe at 0-1 mM (BH4 was fixed at 75 μM). L-Tyr formed was quantified by HPLC and fluorimetric detection (DØskeland A P, et al., J. Biol. Chem. 1984; 259:11242-11248). The saturation curves were fitted to hyperbolic (for BH4) or sigmoidal (for L-Phe) kinetic models by using Sigma Plot v.9.0 (SPSS Inc).
PAH enzyme kinetics have been analyzed in the presence of the four hit compounds in order to know if ligand binding interferes with PAH catalytic activity. Activity measurements were performed in the presence of high (100 μM) concentrations of ligands with or without preincubating PAH enzyme with L-Phe prior to activity assays. L-Phe preincubation of human PAH lead to activation of the enzyme and manifestation of positive cooperativity by the substrate, and it is thought to play an important regulatory role on PAH activity in vivo (Pey A L, et al., In: Blau N. ed. Advances in PKU and BH4, 2006). […] It is worth noting that under these conditions, ligand concentration equalled L-Phe concentration (100 μM), and 10-fold exceeded BH4 concentration (10 μM). Except for compound 13, this inhibition was dramatically weakened when the preincubation step with L-Phe (100 μM) was ommited. Moreover, when L-Phe and BH4 are used at saturating concentrations, inhibition was abolished (FIG. 3B), indicating a rather weak and reversible inhibitory effect exerted by these ligands.
Further kinetic analyses were performed to determine if the weak inhibition was due to competition for the substrate and/or cofactor binding sites. Activity dependence on BH4 and L-Phe concentration was measured in the presence of 100 μM compound concentration, and the experimental data fitted to hyperbolic (BH4) or sigmoidal (L-Phe) kinetic models. The fitting parameters obtained from these experiments are compiled in Table 2. […] These values are substantially higher than those obtained for likely physiological inhibitors of PAH, such as 7S-BH4 and BH2 (Kl˜2-5 μM and ˜17 μM, respectively).

Compound	ΔT0.5 PAHwt (wt-PAH [1])	T0.5 PAHwt (half denaturation temperature) (wt-PAH [1])	reduction in Vmax (activity dependence on L-Phe) (wt-PAH [2])	inhibition of PAH activity (wt-PAH [2])	increase of Km for BH4 (wt-PAH [2])	S0.5, L-Phe (wt-PAH [2])	Vmax, L-Phe (wt-PAH [2])	h (Hill coefficient), L-Phe (wt-PAH [2])	Vmax, BH4, No preincubation (wt-PAH [2])	Vmax, BH4, Preincubation (wt-PAH [2])	Ki (wt-PAH [2])	stabilizing effect on wt-PAH (wt-PAH [1])
Cc1onc(-c2ccccc2)c1-c1n[nH]c(N)c1C#N [Compound 5, 5-amino-3-(5-methyl-3-phenyl-4-isoxazolyl)-1H-pyrazole-4-carbonitrile]	2.6 °C	52.1 ± 0.9 °C	about 13%	specially significant	~20%	118 ± 5 µM	3.02 ± 0.08 μmol L-Tyr/min·mg	2.6 ± 0.3	0.80 ± 0.05 μmol L-Tyr/min·mg	3.52 ± 0.41 μmol L-Tyr/min·mg	~500 µM	–
Cn1cnc([N+](=O)[O-])c1N1CCN(C(c2ccccc2)c2ccccc2)CC1 [Compound 6, 1-benzhydryl-4-(1-methyl-4-nitro-1H-imidazol-5-yl)piperazine]	2.7 °C	52.2 ± 1.3 °C	–	–	–	156 ± 10 µM	3.77 ± 0.13 μmol L-Tyr/min·mg	1.8 ± 0.1	0.81 ± 0.05 μmol L-Tyr/min·mg	2.96 ± 0.10 μmol L-Tyr/min·mg	–	–
Nc1c(-c2ccc3ccccc3n2)c2ccc([N+](=O)[O-])cc2c(=O)n1Cc1ccccc1 [Compound 11, 3-amino-2-benzyl-7-nitro-4-(2-quinolyl)-1,2-dihydroisoquinolin-1-one]	13.6 °C	63.1 ± 2.9 °C	–	–	–	138 ± 8 µM	3.57 ± 0.11 μmol L-Tyr/min·mg	1.9 ± 0.2	0.86 ± 0.03 μmol L-Tyr/min·mg	2.87 ± 0.14 μmol L-Tyr/min·mg	–	significant
Cc1ccnc(-n2c(=S)[nH]c3sc(C)c(C)c3c2=O)c1 [Compound 13, 5,6-dimethyl-3-(4-methyl-2-pyridinyl)-2-thioxo-2,3 dihydrothieno[2,3-d]pyrimidin-4(1H)-one]	7.2 °C	56.7 ± 1.5 °C	~30%	specially significant	~50%	131 ± 11 µM	2.43 ± 0.10 μmol L-Tyr/min·mg	1.6 ± 0.2	0.85 ± 0.07 μmol L-Tyr/min·mg	3.11 ± 0.16 μmol L-Tyr/min·mg	~200 µM	significant
